# From patent US20250154180A1, “CRK-LIKE (CRKL) ADAPTOR PROTEIN INHIBITORS AND METHODS OF MAKING AND USING THE SAME” (Rutgers, The State University of New Jersey, priority 2022, published 2025)
# Tested on: breast cancer cells (MCF7, MDA-MB-453, MDA-MB-231, MDA-MB-231-GFP-LUC, Hs578t, MDA-MB-468)
# Test: MTT assay, breast cancer cell lines (TNBC and non-TNBC)
# Assay type: cell-based
# Details: 72 h, three days after treatment
# Experimental: Peripheral blood mononuclear cells (PBMCs, line with the symbol □) were used to determine the specificities of the cytotoxic effects of Pomiferin. The survival curve of PBMC-average is from four different healthy donors. Cells (1×10^3−3×10^3) were plated in 96-well plates, and cell growth was determined by MTT assay three days after cells were treated with Pomiferin at the indicated doses.
# MTT assay—The MTT assay was used to detect cell proliferation. Briefly, cells were plated in a 96-well plate at a density of 50,000 cells/well in 200 μl of culture medium with candidate drugs to be tested (DMSO as a negative control). The treated cells were incubated for four hours a 37° C. with a 5% CO2 incubator to allow dark crystals to form at the bottom of the wells. After culturing for 48 hours, […] of MTT reagent was added to each well and mixed gently for one minute. After aspirating the culture medium from each well, 100 μl of crystal dissolving solution was added to each well and incubated for 10 minutes at RT. The signal was quantified by measuring the absorbance in each sample at 570 nm using a microplate reader.
smiles,measurement,value
"CC(C)=CCc1c2c(c3occ(-c4ccc(O)c(O)c4)c(=O)c3c1O)C=CC(C)(C)O2 [Pomiferin, 3′,4′,5-Trihydroxy-6″,6″-dimethyl-6-(3-methylbut-2-en-1-yl)-6″H-pyrano[2″,3″:7,8]isoflavone]",IC50,1.3 to 3.6 µM
